Where “and” joins values, the source holds several entries; their conditions need not be identical. Equal values may be shown once. Toxic doses and inconclusive results are not listed.

The test system of this test is L1210 leukemia ip in BDF1 mice, survival T/C. Put plainly: NCI In Vivo Anticancer Drug Screen. Data for tumor model L1210 Leukemia (intraperitoneal) in B6D2F1 (BDF1) mice. To be noted: endpoint: mean survival time, higher = longer survival. In outline: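 Read-out is survival time, reported as the treated-group measurement over the vehicle-control measurement.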
Setting [1] is: dose: 25.0 mg/kg/injection, schedule: Q01DX009 (ip), vehicle: saline.
Setting [2] is: dose: 100.0 mg/kg/injection, schedule: Q01DX001 (ip), vehicle: saline with Tween-80.
The mark [3] stands for this setting: dose: 200.0 mg/kg/injection, schedule: Q01DX001 (ip), vehicle: saline with Tween-80.
Setting [4] is: dose: 400.0 mg/kg/injection, schedule: Q01DX001 (ip), vehicle: saline with Tween-80.
The mark [5] stands for this setting: dose: 100.0 mg/kg/injection, schedule: Q01DX001 (ip), vehicle: carboxymethylcellulose (CMC).
[6] abbreviates: dose: 200.0 mg/kg/injection, schedule: Q01DX001 (ip), vehicle: carboxymethylcellulose (CMC).
The mark [7] stands for this setting: dose: 400.0 mg/kg/injection, schedule: Q01DX001 (ip), vehicle: carboxymethylcellulose (CMC).
Where [8] appears, read: dose: 100.0 mg/kg/injection, schedule: Q01DX009 (ip), vehicle: Klucel (hydroxypropylcellulose) (HPC).
The mark [9] stands for this setting: dose: 200.0 mg/kg/injection, schedule: Q01DX009 (ip), vehicle: Klucel (hydroxypropylcellulose) (HPC).
The mark [10] stands for this setting: dose: 400.0 mg/kg/injection, schedule: Q01DX009 (ip), vehicle: Klucel (hydroxypropylcellulose) (HPC).
The mark [11] stands for this setting: dose: 100.0 mg/kg/injection, schedule: Q01DX001 (ip), vehicle: saline.
Setting [12] is: dose: 200.0 mg/kg/injection, schedule: Q01DX001 (ip), vehicle: saline.
Setting [13] is: dose: 400.0 mg/kg/injection, schedule: Q01DX001 (ip), vehicle: saline.
Where [14] appears, read: dose: 100.0 mg/kg/injection, schedule: Q04DX003 (ip), vehicle: Klucel (hydroxypropylcellulose) (HPC).
[15] abbreviates: dose: 200.0 mg/kg/injection, schedule: Q04DX003 (ip), vehicle: Klucel (hydroxypropylcellulose) (HPC).
Setting [16] is: dose: 400.0 mg/kg/injection, schedule: Q04DX003 (ip), vehicle: Klucel (hydroxypropylcellulose) (HPC).

For the compound `CCCCCCCCCCCCCCCCC/C=N\N=C(N)N`, the T/C was 101 % of control (dose: 15.0 mg/kg/injection, schedule: Q01DX Z (ip), vehicle: carboxymethylcellulose (CMC)); 96 % of control (dose: 30.0 mg/kg/injection, schedule: Q01DX Z (ip), vehicle: carboxymethylcellulose (CMC)); 90 % of control (dose: 60.0 mg/kg/injection, schedule: Q01DX Z (ip), vehicle: carboxymethylcellulose (CMC)); 106 % of control (dose: 60.0 mg/kg/injection, schedule: Q01DX Z (oral), vehicle: carboxymethylcellulose (CMC)); 104 % of control (dose: 120.0 mg/kg/injection, schedule: Q01DX Z (ip), vehicle: carboxymethylcellulose (CMC)); 110 % of control (dose: 120.0 mg/kg/injection, schedule: Q01DX Z (oral), vehicle: carboxymethylcellulose (CMC)). The T/C is, setting by setting: (dose: 240.0 mg/kg/injection, schedule: Q01DX Z (oral), vehicle: carboxymethylcellulose (CMC)) 118 % of control; (dose: 480.0 mg/kg/injection, schedule: Q01DX Z (oral), vehicle: carboxymethylcellulose (CMC)) 118 % of control.

For `COc1cc([C@@H]2c3cc4c(cc3[C@H](SC(=N)N)[C@H]3COC(=O)[C@H]23)OCO4)cc(OC)c1OC`, the T/C was 98 % of control (dose: 5.0 mg/kg/injection, schedule: Q01DX Z (ip), vehicle: carboxymethylcellulose (CMC)); 109 % of control (dose: 6.0 mg/kg/injection, schedule: Q01DX Z (ip), vehicle: carboxymethylcellulose (CMC)); 103 % of control (dose: 10.0 mg/kg/injection, schedule: Q01DX Z (ip), vehicle: carboxymethylcellulose (CMC)); 112 % of control (dose: 12.0 mg/kg/injection, schedule: Q01DX Z (ip), vehicle: carboxymethylcellulose (CMC)); 108 % of control (dose: 18.0 mg/kg/injection, schedule: Q01DX Z (ip), vehicle: carboxymethylcellulose (CMC)); 103 % of control (dose: 18.0 mg/kg/injection, schedule: Q01DX Z (ip), vehicle: methylcellulose (MC)). For the same compound, the T/C (dose: 24.0 mg/kg/injection, schedule: Q01DX Z (ip), vehicle: carboxymethylcellulose (CMC)) was 112 % of control; the T/C under setting [1] is 118 % of control; the T/C (dose: 27.0 mg/kg/injection, schedule: Q01DX Z (ip), vehicle: carboxymethylcellulose (CMC)) was 100 % of control; the T/C (dose: 37.5 mg/kg/injection, schedule: Q04DX003 (ip), vehicle: saline) is 104 % of control; the T/C (dose: 48.0 mg/kg/injection, schedule: Q01DX Z (ip), vehicle: carboxymethylcellulose (CMC)) was 109 % of control; the T/C (dose: 50.0 mg/kg/injection, schedule: Q01DX009 (ip), vehicle: saline) is 88 % of control. Also, the T/C was 109 % of control (dose: 60.0 mg/kg/injection, schedule: Q01DX Z (ip), vehicle: methylcellulose (MC)); 105 % of control (dose: 75.0 mg/kg/injection, schedule: Q04DX003 (ip), vehicle: saline); 89 % of control (dose: 150.0 mg/kg/injection, schedule: Q04DX003 (ip), vehicle: saline).

With `CCCN(C)/N=N/c1[nH]ncc1C(N)=O`, the T/C is 178 % of control (dose: 66.0 mg/kg/injection, schedule: Q01DX009 (ip), vehicle: saline with Tween-80); 113 % of control under setting [2]; 188 % of control (dose: 100.0 mg/kg/injection, schedule: Q01DX009 (ip), vehicle: saline with Tween-80); 115 % of control under setting [3]; 120 % of control (dose: 200.0 mg/kg/injection, schedule: Q01DX009 (ip), vehicle: saline with Tween-80); 116 % of control (dose: 200.0 mg/kg/injection, schedule: Q04DX003 (ip), vehicle: saline with Tween-80). Further, the T/C is 109 % of control under setting [4] and 94 % of control (dose: 400.0 mg/kg/injection, schedule: Q04DX003 (ip), vehicle: saline with Tween-80).

Turning to `CC1(C)C(C)(C)C1(F)Cl`, the T/C was 101 % of control under setting [5], 106 % of control under setting [6] and 118 % of control under setting [7].

Regarding `CCOC(=O)c1ccc(NC(=O)Nc2ccc(F)c([N+](=O)[O-])c2)cc1`, the T/C under setting [8] is 95 % of control, the T/C under setting [9] is 101 % of control and the T/C under setting [10] is 96 % of control.

As for `O=[N+]([O-])c1ccc(O)cc1/C=N/Nc1nnc(N/N=C/c2cc(O)ccc2[N+](=O)[O-])c2ccccc12`, the T/C is 98 % of control (dose: 50.0 mg/kg/injection, schedule: Q01DX001 (ip), vehicle: saline); 98 % of control under setting [11]; 98 % of control under setting [12]; 102 % of control under setting [13].

Turning to `COC(=O)C1OC1c1cc(Cl)cc(Cl)c1OC` (stereo not drawn), the T/C under setting [11] was 100 % of control, the T/C under setting [12] is 106 % of control and the T/C under setting [13] was 101 % of control.

As to `CC(C)(C)C(=C=C=O)C#N`, the T/C is 87 % of control under setting [2], 94 % of control under setting [3] and 87 % of control under setting [4].

As to `C=C(C)C(=O)Nc1ccccc1`, the T/C was 86 % of control under setting [14] and 89 % of control under setting [15].

On to `O=CNC(Cc1ccccc1)Cc1ccccc1`, for which the T/C is 98 % of control (dose: 5.0 mg/kg/injection, schedule: Q01DX009 (ip), vehicle: Klucel (hydroxypropylcellulose) (HPC)); 103 % of control (dose: 5.0 mg/kg/injection, schedule: Q04DX003 (ip), vehicle: Klucel (hydroxypropylcellulose) (HPC)); 102 % of control (dose: 10.0 mg/kg/injection, schedule: Q01DX009 (ip), vehicle: Klucel (hydroxypropylcellulose) (HPC)); 103 % of control (dose: 10.0 mg/kg/injection, schedule: Q04DX003 (ip), vehicle: Klucel (hydroxypropylcellulose) (HPC)); 102 % of control (dose: 20.0 mg/kg/injection, schedule: Q01DX009 (ip), vehicle: Klucel (hydroxypropylcellulose) (HPC)); 102 % of control and 107 % of control (dose: 20.0 mg/kg/injection, schedule: Q04DX003 (ip), vehicle: Klucel (hydroxypropylcellulose) (HPC)).

Consider `COCn1cnc2c(F)ncnc21`, for which the T/C is, setting by setting: (dose: 6.25 mg/kg/injection, schedule: Q01DX009 (ip), vehicle: saline) 94 % of control; (dose: 6.25 mg/kg/injection, schedule: Q04DX003 (ip), vehicle: saline) 101 % of control; (dose: 12.5 mg/kg/injection, schedule: Q01DX009 (ip), vehicle: saline) 100 % of control; (dose: 12.5 mg/kg/injection, schedule: Q04DX003 (ip), vehicle: saline) 104 % of control; under setting [1], 101 % of control; (dose: 25.0 mg/kg/injection, schedule: Q04DX003 (ip), vehicle: saline) 102 % of control.

Take `CCCCCc1ccc2oc(=O)c3ccc(C)cc3c2c1O`: the T/C under setting [8] is 90 % of control; the T/C under setting [14] was 97 % of control; the T/C under setting [9] is 93 % of control; the T/C under setting [15] is 98 % of control; the T/C under setting [10] is 97 % of control; the T/C under setting [16] is 97 % of control.

On to `COc1cccc(CCO)c1OC`, for which the T/C is, setting by setting: (dose: 50.0 mg/kg/injection, schedule: Q01DX001 (ip), vehicle: carboxymethylcellulose (CMC)) 88 % of control; under setting [5], 91 % of control; under setting [6], 88 % of control; under setting [7], 98 % of control.

Regarding `CC(C)(C)OC(=O)NC(C(=O)O)C1=CCC=CC1` (stereo not drawn), the T/C was 94 % of control under setting [14] and 102 % of control under setting [16].

(Values after PubChem BioAssay AID248 (DTP/NCI, 2004).)
